Source: patent publication US10689383B2, “Optionally fused heterocyclyl-substituted derivatives of pyrimidine useful for the treatment of inflammatory, metabolic, oncologic and autoimmune diseases” (NUEVOLUTION A/S, priority 2014, dated 2020)

Key:
[1] = molecular target: T1, human RORγt (Ligand Binding Domain) (Homo sapiens, UniProt P51449); assay: Fluorescence Polarization (FP) Assay; details: Fluorescence Polarization (FP) Assay; values given as upper bounds of activity ranges; read-out: FP activity range
T1 construct: purchased Crelux (Planegg, Germany) batch no PC5032-1
T1 sequence (P51449 269-508 limits assumed): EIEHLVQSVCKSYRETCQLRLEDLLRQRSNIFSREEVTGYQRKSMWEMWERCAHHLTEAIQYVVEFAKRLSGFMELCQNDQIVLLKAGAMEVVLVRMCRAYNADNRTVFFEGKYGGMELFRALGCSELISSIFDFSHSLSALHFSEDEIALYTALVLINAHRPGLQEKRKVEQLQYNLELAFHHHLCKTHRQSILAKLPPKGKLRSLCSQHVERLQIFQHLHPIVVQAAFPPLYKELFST
In short: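 In vitro FP binding assay monitoring ligand binding within the ligand binding pocket. Probe is a TAMRA-labelled RORγt ligand (MW 910 g/mole); DMSO served as negative control.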

[2] = molecular target: T2, yeast Gal4-DNA binding domain fused to the ligand binding domain of human RORγ (Homo sapiens, UniProt P51449); assay: RORγ Reporter Assay (Gal4); format: cell-based; details: values given as lower bounds of ranges; for Gal4 activity range @ 0.1 μM (% inhibition): RORγ Reporter Assay (Gal4) at 0.1 μM; for Gal4 activity range @ 1 μM (% inhibition): RORγ Reporter Assay (Gal4) at 1 μM
T2 construct: host or cells: HEK293t
T2 sequence (P51449 269-508 limits assumed): T1 sequence (P51449 269-508 limits assumed)
In short: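 HEK293t reporter cells expressing the hybrid, with Gal4-UAS-driven firefly luciferase, treated in triplicate with compound at 1,000 nM and 100 nM (0.1% DMSO) in medium with 10% charcoal-stripped FBS for 24 h at 37 °C. Luminescence read; percent reduction of RLU calculated relative to vehicle.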

IC50 [1] [nM] | Gal4 activity range @ 0.1 μM (% inhibition) [2] [% inhibition] | Gal4 activity range @ 1 μM (% inhibition) [2] [% inhibition] | SMILES
< 500 | >80 | >80 | CS(=O)(=O)CC1(CNc2ncnc(N3CCC[C@@H]3c3ccc(C(F)(F)F)cc3)c2F)CCOCC1 [Example 240, 5-fluoro-N-[[4-(methylsulfonylmethyl)tetrahydropyran-4-yl]methyl]-6-[(2R)-2-[4-(trifluoromethyl)phenyl]pyrrolidin-1-yl]pyrimidin-4-amine]
< 1000 | >20 | >80 | NC(=O)CC1CCC(CNc2ncnc(N3CCOC[C@@H]3c3ccc(OC(F)(F)F)cc3)c2F)CC1 (stereo partly drawn) [Example 245, 2-[4-[[[5-fluoro-6-[(3S)-3-[4-(trifluoromethoxy)phenyl]morpholin-4-yl]pyrimidin-4-yl]amino]methyl]cyclohexyl] acetamide]
< 500 | >20 | >80 | Fc1c(NCc2ccc(Cc3nnn[nH]3)cc2)ncnc1N1CCOC[C@@H]1c1ccc(OC(F)(F)F)cc1 [Example 246, 5-fluoro-N-[[4-(1H-tetrazol-5-ylmethyl)phenyl]methyl]-6-[(3S)-3-[4-(trifluoromethoxy)phenyl]morpholin-4-yl]pyrimidin-4-amine]
< 10000 | >20 | >80 | Fc1c(NCC2CCOCC2)ncnc1N1CCOC[C@@H]1c1ccc(C(F)(F)F)cc1 [Example 247, 5-fluoro-N-(tetrahydropyran-4-ylmethyl)-6-[(3S)-3-[4-(trifluoromethyl)phenyl]morpholin-4-yl]pyrimidin-4-amine]
< 1000 | >20 | >80 | CC1CC(c2ccc(C(F)(F)F)cc2)N(c2ncnc(NCc3ccc(CC(N)=O)cc3)c2F)C1 (stereo not drawn) [Example 248, 2-[4-[[[5-fluoro-6-[4-methyl-2-[4-(trifluoromethyl)phenyl]pyrrolidin-1-yl]pyrimidin-4-yl]amino]methyl]phenyl]acetamide]
< 500 | >80 | >80 | NC(=O)Cc1ccc(Cn2ccc3c(N4CCOC[C@@H]4c4ccc(OC(F)(F)F)cc4)ncnc32)cc1 [Example 252, 2-[4-[[4-[(3S)-3-[4-(trifluoromethoxy)phenyl]morpholin-4-yl]pyrrolo[2,3-d]pyrimidin-7-yl]methyl]phenyl]acetamide]
< 1000 | >50 | >80 | CS(=O)(=O)CC1(CNc2ncnc(N3CCOC[C@@H]3c3ccc(C(F)(F)F)cc3)c2F)CCOCC1 [Example 253, 5-fluoro-N-[[4-(methylsulfonylmethyl)tetrahydropyran-4-yl]methyl]-6-[(3S)-3-[4-(trifluoromethyl)phenyl]morpholin-4-yl]pyrimidin-4-amine]
< 500 | >50 | >80 | COC(=O)C1(CNc2ncnc(N3CCOCC3c3ccc(C(F)(F)F)cc3)c2F)CCOCC1 (stereo not drawn) [Example 254, methyl 4-[[[5-fluoro-6-[3-[4-(trifluoromethyl)phenyl]morpholin-4-yl]pyrimidin-4-yl]amino]methyl]tetrahydropyran-4-carboxylate]
< 2000 | >20 | >50 | NC(=O)C1(CNc2ncnc(N3CCOC[C@@H]3c3ccc(C(F)(F)F)cc3)c2F)CCOCC1 [Example 255, 4-[[[5-fluoro-6-[(3S)-3-[4-(trifluoromethyl)phenyl]morpholin-4-yl]pyrimidin-4-yl]amino]methyl]tetrahydropyran-4-carboxamide]
< 500 | >50 | >80 | N#CC1(CNc2ncnc(N3CCOC[C@@H]3c3ccc(C(F)(F)F)cc3)c2F)CCOCC1 [Example 257, 4-[[[5-fluoro-6-[(3S)-3-[4-(trifluoromethyl)phenyl]morpholin-4-yl]pyrimidin-4-yl]amino]methyl]tetrahydropyran-4-carbonitrile]
< 500 | >80 | >80 | NC(=O)Cc1ccc(CNc2ncnc(N3CCOC[C@@H]3c3ccc(OC(F)(F)F)cc3F)c2F)cc1 [Example 258, 2-[4-[[[5-fluoro-6-[(3S)-3-[2-fluoro-4-(trifluoromethoxy)phenyl]morpholin-4-yl]pyrimidin-4-yl]amino]methyl]phenyl]acetamide]
< 500 | >50 | >80 | Fc1c(NCC2CCOCC2)ncnc1N1CC(F)(F)CC1c1ccc(C(F)(F)F)cc1 (stereo not drawn) [Example 259, 6-[4,4-difluoro-2-[4-(trifluoromethyl)phenyl]pyrrolidin-1-yl]-5-fluoro-N-(tetrahydropyran-4-ylmethyl)pyrimidin-4-amine]
< 500 | >50 | >80 | CS(=O)(=O)CC1(CNc2ncnc(N3CC(F)(F)CC3c3ccc(C(F)(F)F)cc3)c2F)CCOCC1 (stereo not drawn) [Example 260, 6-[4,4-difluoro-2-[4-(trifluoromethyl)phenyl]pyrrolidin-1-yl]-5-fluoro-N-[[4-(methylsulfonylmethyl)tetrahydropyran-4-yl]methyl]pyrimidin-4-amine]
< 1000 | >20 | >80 | OCC1(CNc2ncnc(N3CC(F)(F)CC3c3ccc(C(F)(F)F)cc3)c2F)COC1 (stereo not drawn) [Example 261, [3-[[[6-[4,4-difluoro-2-[4-(trifluoromethyl)phenyl]pyrrolidin-1-yl]-5-fluoro-pyrimidin-4-yl]amino]methyl]oxetan-3-yl]methanol]
< 1000 | >20 | >50 | CC(=O)N1CCC(F)(CNc2ncnc(N3CCOC[C@@H]3c3ccc(C(F)(F)F)cc3)c2F)CC1 [Example 262, 1-[4-fluoro-4-[[[5-fluoro-6-[(3S)-3-[4-(trifluoromethyl)phenyl]morpholin-4-yl]pyrimidin-4-yl]amino]methyl]-1-piperidyl]ethanone]
< 500 | >50 | >80 | O=S(=O)(N1CCC(CNc2ncnc(N3CCOC[C@@H]3c3ccc(C(F)(F)F)cc3)c2F)CC1)C(F)(F)F [Example 263, 5-fluoro-6-[(3S)-3-[4-(trifluoromethyl)phenyl]morpholin-4-yl]-N-[[1-(trifluoromethylsulfonyl)-4-piperidyl]methyl]pyrimidin-4-amine]
< 500 | >20 | >80 | Fc1c(NCC2(F)CCOCC2)ncnc1N1CCOC[C@@H]1c1ccc(C(F)(F)F)cc1 [Example 264, 5-fluoro-N-[(4-fluorotetrahydropyran-4-yl)methyl]-6-[(3S)-3-[4-(trifluoromethyl)phenyl]morpholin-4-yl]pyrimidin-4-amine]
